# pIC50: −log10 of the molar value. Like-named read-outs stand apart in the source and are kept apart here.
# Columns and labels:
# [1] = Motor toxicity (TD50) in rats; conditions: rat, in vivo, po
# thermal nociception [2] = type: in vivo, rats; conditions: 25 mg/kg i.p.
# Experimental: In this standard assay, the thermal nociceptive stimulus was 52° C. warm water with the latency to tail flick or withdrawal taken as the endpoint.
# [3] = biological target: NMDA receptor-ionophore complex (site labeled by [3H]MK-801); assay: Inhibition of [3H]MK-801 binding in rat cortical/hippocampal washed membrane preparations; conditions: read-out: IC50 (μM) vs. [3H]MK-801; rat cortical/hippocampal washed membranes
# serotonin uptake site = biological target: T1, serotonin uptake site (Rattus norvegicus, UniProt P31652); assay: Serotonin uptake binding assay: [3H]citalopram binding to rat forebrain membranes
# T1 construct: from tissue; host or cells: rat forebrain membranes (per the assay title)
# focal ischemic stroke = assay: Rat model of focal ischemic stroke (vessel occlusion); type: in vivo, rats; conditions: i.p. 2 mg/kg 30 min prior to vessel occlusion and 2 mg/kg 3 hr post-occlusion
# sound-induced seizures = assay: Sound-induced seizures in Frings mice (reflex epilepsy); type: in vivo; conditions: Mus musculus, Frings mice
# [4] = system: central muscarinic cholinergic receptor; type: binding, rat
# dopamine uptake site = biological target: T2, dopamine uptake site (Cavia porcellus, UniProt H0WCX4); assay: Dopamine uptake binding assay: [3H]WIN-35,428 binding to guinea pig striatal membranes
# T2 construct: from tissue; host or cells: guinea pig striatal membranes (per the assay title)
# thermal nociception [5] = type: in vivo, rats; conditions: 25 mg/kg i.p.; remark: listed apart in the source
# Experimental: In these experiments, a 52° C. hot plate was used as the nociceptive stimulus.
# [6] = system: mean arterial blood pressure; conditions: i.v.
# motor performance = assay: Acute motor impairment (rotorod) in mice; conditions: Frings mice, i.p.
# Experimental: (§1) In this assay, Frings and CF1 mice were injected with test compound and placed on a knurled rod which rotated at a speed of 6 rpm. The ability of the mice to maintain equilibrium for long periods of time was determined; those mice that were unable to maintain equilibrium on the rotorod for 1 min in each of 3 trials were considered impaired.
# in vivo = conditions: mouse, in vivo
# Experimental: as §1
# NMDA receptor = assay: Inhibition of NMDA/glycine-induced increases in intracellular calcium in cultured rat cerebellar granule cells (RCGC); type: cell-based; conditions: NMDA/glycine-induced increases in intracellular calcium, cultured rat cerebellar granule cells; read-out: IC50 (μM) vs. NMDA
# [7] = system: maximal electroshock-induced seizures; assay: Maximal electroshock-induced seizures in rats; type: in vivo; conditions: Rattus norvegicus, po, read-out: ED50, maximal electroshock-induced seizures
# [8] = biological target: T3, norepinephrine uptake site (Rattus norvegicus, UniProt Q63380); assay: Norepinephrine uptake binding assay: [3H]desipramine binding to rat cortical membranes
# T3 construct: from tissue; host or cells: rat cortical membranes (per the assay title)
# focal ischemia = assay: Photothrombotic (Rose Bengal) model of focal cerebral ischemia; type: in vivo, rat; conditions: 10 mg/kg i.p. at 15 min, 3 hr, and again 6 hr post-occlusion
# Source text: In a third model of focal cerebral ischemia in the rat, an ischemic infarct was produced by a photothrombotic method using the dye Rose Bengal.
# seizure threshold = assay: i.v. Metrazol test (seizure threshold) in mice; type: in vivo
# L-type calcium channel = system: T4, L-type calcium channel; assay: Inhibition of KCl depolarization-induced increases in intracellular calcium in cultured rat cerebellar granule cells; type: cell-based; conditions: cultured rat cerebellar granule cells; read-out: L-type calcium channel: estimated IC50, KCl depolarization-induced increases in intracellular calcium
# T4 construct: L-type calcium channel: estimated IC50, KCl depolarization-induced increases in intracellular calcium; other: cultured
# Source text: The ability of arylalkylamines to inhibit dihydropyridine-sensitive Ca^2+ channels was examined in cerebellar granule cells and a rat aortic smooth muscle cell line, A7r5 cells.
# behavior [9] = assay: Behavioral effects in conscious male Wistar rats
# behavior [10] = assay: Behavioral effects in conscious beagle dogs
# [11] = system: maximal electroshock-induced seizures; assay: Maximal electroshock-induced seizures in mice; type: in vivo; conditions: Mus musculus, ip; mice
# [12] = system: mean arterial pressure, heart rate, ECG; assay: Cardiovascular activity in conscious beagle dogs
# temporary focal ischemia = assay: Temporary focal cerebral ischemia (middle cerebral artery occlusion, suture withdrawn after 2 hr); type: in vivo, rat
# Experimental: In a fourth model of focal cerebral ischemia in the rat, the middle cerebral artery was temporarily occluded by passing a small piece of suture thread through the carotid artery to the region of the middle cerebral artery. The suture thread was withdrawn after an ischemic period of 2 hr. Core body temperature was maintained at 37° C. […]
# PBQ-elicited writhing = type: in vivo; conditions: 4 mg/kg i.p.
# Experimental: In the first series of experiments, the animals were administered an unpleasant stimulus (2-phenyl-1,4-benzoquinone, PBQ) which elicits a writhing response (abdominal stretching). Typically, the number of writhes occurring in a 5 min observation period is recorded. […] Nonsteroidal antiinflammatory agents are likewise effective in this model.
# [13] = 3 mg/kg i.v. (60 sec bolus injection)
# [14] = 10 mg/kg i.v. (60 sec bolus injection)
# T3 sequence (Q63380 1-617): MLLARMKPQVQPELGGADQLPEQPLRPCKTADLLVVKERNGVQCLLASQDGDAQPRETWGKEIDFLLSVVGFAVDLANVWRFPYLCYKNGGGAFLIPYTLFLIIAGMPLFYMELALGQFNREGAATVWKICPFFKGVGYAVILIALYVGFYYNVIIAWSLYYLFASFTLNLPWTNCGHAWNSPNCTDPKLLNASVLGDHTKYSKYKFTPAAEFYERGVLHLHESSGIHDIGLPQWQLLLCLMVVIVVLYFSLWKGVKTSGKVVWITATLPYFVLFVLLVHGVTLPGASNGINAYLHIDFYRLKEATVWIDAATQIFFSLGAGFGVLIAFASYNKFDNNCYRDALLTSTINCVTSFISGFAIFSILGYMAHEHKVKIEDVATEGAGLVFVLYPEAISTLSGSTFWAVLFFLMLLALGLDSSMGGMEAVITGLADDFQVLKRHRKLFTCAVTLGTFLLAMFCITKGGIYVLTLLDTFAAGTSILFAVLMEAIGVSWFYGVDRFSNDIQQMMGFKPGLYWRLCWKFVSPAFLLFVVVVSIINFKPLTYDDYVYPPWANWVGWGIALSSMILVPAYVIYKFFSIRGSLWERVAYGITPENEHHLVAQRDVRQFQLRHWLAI
# T1 sequence (P31652 whole entry): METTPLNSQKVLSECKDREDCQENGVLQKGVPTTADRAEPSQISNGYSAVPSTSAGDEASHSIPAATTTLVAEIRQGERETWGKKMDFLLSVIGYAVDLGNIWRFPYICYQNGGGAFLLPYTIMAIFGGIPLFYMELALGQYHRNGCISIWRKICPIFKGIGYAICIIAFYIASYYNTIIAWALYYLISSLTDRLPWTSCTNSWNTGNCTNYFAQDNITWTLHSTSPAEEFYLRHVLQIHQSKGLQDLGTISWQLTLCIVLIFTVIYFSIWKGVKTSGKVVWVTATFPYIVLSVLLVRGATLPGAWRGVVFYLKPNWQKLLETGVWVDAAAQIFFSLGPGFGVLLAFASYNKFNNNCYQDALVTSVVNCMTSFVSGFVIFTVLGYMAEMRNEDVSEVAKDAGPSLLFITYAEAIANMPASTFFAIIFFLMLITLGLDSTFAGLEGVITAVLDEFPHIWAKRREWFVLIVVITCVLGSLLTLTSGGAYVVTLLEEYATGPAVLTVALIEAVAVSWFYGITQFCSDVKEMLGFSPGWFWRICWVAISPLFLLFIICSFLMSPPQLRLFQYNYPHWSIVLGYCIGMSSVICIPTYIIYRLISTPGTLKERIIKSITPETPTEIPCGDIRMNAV
# T2 sequence (H0WCX4 1-619): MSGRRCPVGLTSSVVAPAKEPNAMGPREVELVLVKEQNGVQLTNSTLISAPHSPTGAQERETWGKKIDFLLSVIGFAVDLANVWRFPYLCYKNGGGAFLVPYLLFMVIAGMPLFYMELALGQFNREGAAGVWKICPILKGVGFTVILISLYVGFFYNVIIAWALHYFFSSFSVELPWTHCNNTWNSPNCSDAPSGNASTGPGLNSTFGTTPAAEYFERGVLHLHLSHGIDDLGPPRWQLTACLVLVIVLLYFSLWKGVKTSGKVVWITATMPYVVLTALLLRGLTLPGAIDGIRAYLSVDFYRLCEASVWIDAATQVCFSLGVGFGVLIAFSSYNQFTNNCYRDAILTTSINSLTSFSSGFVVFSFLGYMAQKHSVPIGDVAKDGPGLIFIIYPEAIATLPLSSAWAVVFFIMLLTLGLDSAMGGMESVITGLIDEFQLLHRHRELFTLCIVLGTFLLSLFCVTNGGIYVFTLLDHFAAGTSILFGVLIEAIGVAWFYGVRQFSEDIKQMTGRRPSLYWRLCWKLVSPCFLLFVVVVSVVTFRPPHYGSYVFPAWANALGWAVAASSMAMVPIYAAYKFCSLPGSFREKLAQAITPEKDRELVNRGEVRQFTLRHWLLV
structure (smiles),measurement,setting,value
"C[C@H](N)CC(c1cccc(F)c1)c1cccc(F)c1 [Compound 50, 3,3-bis(3-fluorophenyl)-1-methyl-1-propylamine]",TD50,[1],20 mg/kg
same,"analgesic activity, rat 48° C. tail flick test",thermal nociception [2],no significant analgesic activity
same,IC50,[3],0.762 µM
same,"Monoamine uptake binding assays: serotonin uptake binding assay, percent block",serotonin uptake site; at 0.1 μM,10^g75% at
same,"Monoamine uptake binding assays: serotonin uptake binding assay, percent block",serotonin uptake site; at 10 μM,0.1^h97% at
same,neuroprotectant activity in a rat model of focal ischemic stroke,focal ischemic stroke,significant neuroprotectant activity
same,ED50,sound-induced seizures; ip,2.7 mg/kg
same,ED50,sound-induced seizures; oral,9 mg/kg
same,Central muscarinic cholinergic receptor: percent block of [3H]QNB binding,[4]; at 0.1 μM,11% at
same,Central muscarinic cholinergic receptor: percent block of [3H]QNB binding,[4]; at 10 μM,0.184% at
same,"Monoamine uptake binding assays: dopamine uptake binding assay, percent block",dopamine uptake site; at 0.1 μM,17% at
same,"Monoamine uptake binding assays: dopamine uptake binding assay, percent block",dopamine uptake site; at 10 μM,0.1^f93% at
same,"analgesic activity, rat 52° C. hot plate test",thermal nociception [5],no significant analgesic activity
same,no significant cardiovascular activity in anesthetized rats at doses up to,[6],up to 5 mg/kg
same,TD50 (motor impairment),motor performance,17.4 mg/kg
same,TD50,"in vivo; Frings, po",18.9 mg/kg
same,IC50,NMDA receptor,0.089 µM
same,ED50,[7],28 mg/kg
same,"Monoamine uptake binding assays: norepinephrine uptake binding assay, percent block",[8]; at 0.1 μM,10% at
same,"Monoamine uptake binding assays: norepinephrine uptake binding assay, percent block",[8]; at 10 μM,0.1^g78% at
"CNCCC(c1cccc(F)c1)c1cccc(F)c1 [Compound 60, N-methyl-3,3-bis(3-fluorophenyl)-1-propylamine]","neuroprotectant activity, photothrombotic model",focal ischemia,no significant neuroprotectant activity
same,"seizure threshold, i.v. Metrazol test",seizure threshold; 1 and 4 mg/kg i.p.,no effect on seizure threshold
same,"seizure threshold, i.v. Metrazol test",seizure threshold; 8 and 17 mg/kg i.p.,a reduction in seizure threshold
same,IC50,[3],0.641 µM
same,pIC50,"serotonin uptake site; read-out: Monoamine uptake binding assays: serotonin uptake binding assay, IC50",7.17
same,neuroprotectant activity in a rat model of focal ischemic stroke,focal ischemic stroke,significant neuroprotectant activity
same,pIC50,L-type calcium channel,5.64
same,ED50,sound-induced seizures; ip,4.4 mg/kg
same,ED50,sound-induced seizures; oral,10 mg/kg
same,behavioral effects,behavior [9]; 16 mg/kg i.v.,"Straub tail, convulsions, and death"
same,behavioral effects,behavior [9]; dose of a mg/kg i.v.,"excitation, stereotypies, increased reactivity to touch, increased muscle tone, and tremor"
same,behavioral effects,behavior [9]; doses up to 4 mg/kg i.v.,no significant behavioral effects
same,Central muscarinic cholinergic receptor: percent block of [3H]QNB binding,[4]; at 0.1 μM,13% at
same,Central muscarinic cholinergic receptor: percent block of [3H]QNB binding,[4]; at 10 μM,0.193% at
same,behavioral effects,behavior [10]; [13],a slight increase in respiratory rate
same,behavioral effects,behavior [10]; [14],"dilated pupils, whole body tremors, salivation, and urination"
same,behavioral effects,behavior [10]; 0.3 and 1 mg/kg i.v. (60 sec bolus injection),no significant behavioral effects
same,TD50,"in vivo; Frings, ip",9.2 mg/kg
same,TD50,"in vivo; Frings, po",25.6 mg/kg
same,TD50,in vivo; ip,17.3 mg/kg
same,IC50,NMDA receptor,0.416 µM
same,ED50,[11],8.17 mg/kg
same,cardiovascular activity,[12]; 0.3 mg/kg i.v. (60 sec bolus injection),no significant cardiovascular activity
same,mean arterial pressure,[12]; 1 mg/kg i.v. (60 sec bolus injection),transient increases in mean arterial pressure
same,heart rate,[12]; [13],transient increases in heart rate
same,mean arterial pressure,[12]; [13],transient increases in mean arterial pressure
same,heart rate,[12]; [14],transient increases in heart rate
same,mean arterial pressure,[12]; [14],larger magnitude and longer duration effects
same,changes in the ECG,[12]; doses up to 10 mg/kg i.v. (60 sec bolus injection),no significant changes in the ECG
same,neuroprotectant activity in a rat model of temporary focal ischemic stroke,temporary focal ischemia; i.p. or i.v. 1 mg/kg 2 hr and again 8 hr post-occlusion,significant neuroprotectant activity
same,neuroprotectant activity in a rat model of temporary focal ischemic stroke,temporary focal ischemia; i.v. 1 mg/kg 2 hr post-occlusion,significant neuroprotectant activity
same,"Monoamine uptake binding assays: norepinephrine uptake binding assay, percent block",[8]; at 0.1 μM,16%
same,"Monoamine uptake binding assays: norepinephrine uptake binding assay, percent block",[8]; at 10 μM,at 0.1^g64%
same,pIC50,"[8]; read-out: Monoamine uptake binding assays: norepinephrine uptake binding assay, IC50",6.04
same,dose without neuronal vacuolization,neuronal vacuolization; i.p.,20 mg/kg
same,dose without neuronal vacuolization,neuronal vacuolization; i.v.,10 mg/kg
"CN1CC[C@]23c4c5ccc(O)c4O[C@H]2[C@@H](O)C=C[C@H]3[C@H]1C5 [morphine, reference compound]",block of the writhing response,PBQ-elicited writhing,100%

# Source: patent publication US6750244B2, “Compounds active at a novel site on receptor-operated calcium channels useful for treatment of neurological disorders and diseases” (NPS Pharmaceuticals, Inc., priority 1993, dated 2004)
